Measurements from article PMC7793531 (International Journal of Molecular Sciences, 2020).
Starred links: 1 amine or outer side, 2 acyl side, 3 side chain; linkers in the order of their positions; H or OH if unused. Non-standard residues stand in square brackets, D forms with d. Residues, ends and D or L forms follow the SMILES beside them. Groups on a side chain read outwards from the residue. ξ: configuration not given here. *: point of attachment. Oic(3aξ,7aξ) = O=C(O)[C@@H]1CC2CCCCC2N1; X1 = N=C(N)NCCCC[C@H](N)CN*; Dab = NCC[C@H](N)C(=O)O; CO = O=C([*:1])[*:2]

Molecular target: T1, VEGF-A165/NRP-1 complex (Homo sapiens, UniProt O14786)
T1 construct: purchased R&D Systems
T1 sequence (O14786 22-641 limits assumed): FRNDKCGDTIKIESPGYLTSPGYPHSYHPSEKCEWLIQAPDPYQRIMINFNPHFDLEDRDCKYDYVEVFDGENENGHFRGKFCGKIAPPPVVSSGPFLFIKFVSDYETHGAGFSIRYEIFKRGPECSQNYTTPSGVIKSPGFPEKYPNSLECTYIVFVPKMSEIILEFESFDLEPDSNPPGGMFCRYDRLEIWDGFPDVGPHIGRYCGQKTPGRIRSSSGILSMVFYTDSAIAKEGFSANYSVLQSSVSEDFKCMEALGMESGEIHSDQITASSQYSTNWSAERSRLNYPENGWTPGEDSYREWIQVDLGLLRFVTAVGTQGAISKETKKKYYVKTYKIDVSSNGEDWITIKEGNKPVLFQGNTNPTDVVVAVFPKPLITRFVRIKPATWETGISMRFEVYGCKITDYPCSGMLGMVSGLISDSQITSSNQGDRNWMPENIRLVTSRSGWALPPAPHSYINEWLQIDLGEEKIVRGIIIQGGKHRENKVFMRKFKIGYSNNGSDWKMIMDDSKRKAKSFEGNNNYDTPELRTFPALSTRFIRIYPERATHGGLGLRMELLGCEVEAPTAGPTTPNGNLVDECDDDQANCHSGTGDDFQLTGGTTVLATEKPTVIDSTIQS
Assay: Competitive ELISA-like assay, inhibition of bt-VEGF-A165 binding to immobilized NRP-1
Conditions: recombinant human NRP-1, bt-VEGF-A165, chemiluminescence; read-out: IC50, VEGF-A165/NRP-1 complex inhibitory effect
Description: Inhibitory activity of urea–peptide hybrids against VEGF-A165/NRP-1 complex formation was assessed with a screening ELISA-like assay. NRP-1 was immobilized on microplate wells by simple adsorption and urea–peptide hybrids competed for NRP-1 with biotinylated VEGF-A165 (bt-VEGF-A165). The amount of receptor bound bt-VEGF-A165 was visualized by its interaction with the streptavidin–horseradish peroxidase conjugate (strep-HRP) and the chemiluminescent substrate. The first analyzed group of compounds were analogues 1–3 with the urea bond between L1 and L2. […] The best hybrid in this group was compound 3, which had Lys^U (gDab) branching (where “g” corresponds to guanidinium group), but its IC50 value decreased only 2-fold. Therefore, we assume that no additional interactions between urea bond and the surface of the protein occurred. […] In the case of urea–peptide hybrids, the urea bond might be capable of forming additional hydrogen bonds with protein residues on the surface of NRP-1. The affinity of compounds may conceivably be affected by the colocation of the urea bond and the free amino group of hArg in the branching. In addition, for compounds 4–6, we can observe that decreasing the distance between the free amino group in the main chain and the urea bond in the branching has a positive effect on compounds’ affinity for NRP-1.
This method was previously described for NRP-1 [44, 45, 46]. Briefly, overnight coating at 4 °C of the flat bottom surface of a 96-well plate with 100 μL (200 ng/well) recombinant human NRP-1, NRP-2, VEGFR-1 or VEGFR-2 was followed by non-specific interactions blocking using 0.5% bovine serum albumin (BSA) in PBS. Next, 50 µL of urea–peptide hybrid in PBS and 50 µL (400 ng/mL) of human (bt)-VEGF-A165 in PBS containing 4 µg/mL of heparin were added respectively. Plates were incubated for 2 h at RT, and then washed and treated with streptavidin-horseradish peroxidase conjugate in PBS (1:8000). Next, 100 µL chemiluminescent substrate was added, and luminescence was quantified using Tecan Infinite F200Pro microplate reader (Männedorf, Switzerland). In a positive control (P) only (bt)-VEGF-A165 was present in wells. Not coated by receptor wells were treated as a negative control (N). Percentages of inhibition were calculated by the following formula:100% − [[(S − N)/(P − N)]∙100%](1) where S is the signal intensity measured in wells with urea–peptide hybrid. The IC50 of each urea–peptide hybrid was calculated using the nonlinear regression function with GraphPad Prism Version-5.01 (GraphPad Software, San Diego, CA, USA). Data are presented as log (inhibitor) versus normalized response-variable slope (Figure S16). Data are the means ± SEMs of two or three independent experiments, each performed in triplicate.

IC50: 190 nM
SMILES: N=C(N)NCCCC[C@H](N)CNC(=O)NCC[C@H](N)C(=O)N[C@@H](CCN)C(=O)N1C2CCCCC2C[C@H]1C(=O)N[C@@H](CCCNC(=N)N)C(=O)O (stereo partly drawn) [Compound 6, H-Dab(hArg^U)Dab-Oic-Arg-OH] (H-[Dab]([CO-X1])[Dab][Oic(3aξ,7aξ)]R-OH)
